The test system of assay [1] is 5-lipoxygenase. Briefly: Inhibition of the synthesis of LTB4 by the peritoneal PMN of rats in vitro (5-lipoxygenase-inhibiting activity). It is filed as cell-based, rat. To be noted: for IC50: rat peritoneal PMN in vitro; for IC50 / LTB4 % Inhibition: A23187 10^-6 M; for LTB4 % Inhibition: rat peritoneal PMN. An excerpt:
1.1 Determination of 5-1ipoxygenase-inhibiting activity in vitro (see Goldyne M. E., Burrish G. F., Poubelle P. and Borgeat P., Arachidonic Acid Metabolism among human mononuclear leukocytes. The Journal of Biological Chemistry. Vol. 259, N° 4, p. 8815-8819, 1984, and New Chang C. and Gin Wensu. Stimulation of 5-Lipoxygenase Activity in Polymorphonuclear Leukocytes of Rats by Caseinate Treatment. Biochemical Pharmacology. Vol. 36, N° 8, p. 3033-3036, 1987).
(§1) 5-Lipoxygenase-inhibiting activity was determined on peritoneal leukocytes of rats. Leukocytosis is induced in male OFA rats (IFFA CREDO) weighing 200-250 g by the intraperitoneal injection of 12% sodium caseinate. 18 hours later, the cells are collected by washing the abdominal cavity. The number of cells is adjusted to 2×10^6 /ml.
(§2) The cell suspension is incubated for 10 minutes at 37° C. in the presence of Ca^2+ 5×10^-4 M and Mg^2+ 2×10^-3 M and of various concentrations of the test products. The cells are then stimulated with the calcium ionophore A23187 at a concentration of 10^-6 M for 5 minutes at 37° C. Controls are carded out by incubating the cells with the solvent for the products: 2% DMSO.
After stopping the reaction at +4° C. and centrifugation, the quantity of LTB4 in ng/2×10^6 cells in the supernatants is determined by the E.I.A. method (Statlergenes France). The percentage inhibition is calculated as follows: [formula]
(§3) Metabolism of arachidonic acid by the peritoneal PMN of rats stimulated
(§4) for 5 minutes in vitro by the calcium ionophore (A23187): 10^-6 M.
(§5) Incubation of the products with the cells for 10 minutes prior to
(§6) stimulation with the ionophore.

The test system of assay [2] is synthesis of PGE2 by the peritoneal PMN of rats. Kind of assay: Inhibition of the synthesis of PGE2 by the peritoneal PMN of rats in vitro. To be noted: A23187; for IC50: rat peritoneal PMN in vitro; for inhibition at 100 µM: 10^-4 M. It is filed as cell-based, rat. As to the method:
as §1, §2, §3, §4, §5, §6

Molecules are shown by their SMILES. Structures can show the parent of a compound that is named as a salt.

With `O=C1NCC2(CCN(C(c3ccccc3)c3ccc(OCc4ccc(-c5ccccc5)cn4)cc3)CC2)O1` (racemic) [Example 26, (R,S)-8-{phenyl-[4-(5-phenylpyrid-2-ylmethoxy)phenyl]methyl}-3,8-diaza-1-oxa-2-oxospiro[4,5]decane], the IC50 in assay [1] is more than 100 nM.
Turning to `O=C1NCC2(CCN(CC(=O)c3ccc(OCc4ccc5ccccc5n4)cc3)CC2)O1` [Example 28, 8-{2-oxo-2-[4-(quinol-2-ylmethoxy)phenyl]ethyl}-3,8-diaza-1-oxa-2-oxospiro[4,5]decane], in assay [1] (10^-6 M), the “LTB4 % Inhibition” value was determined as 37%. Further, the IC50 in assay [1] was more than 1000 nM.
In the case of `O=C1NCC2(CCN(CCc3ccccc3)CC2)O1` [fenspiride, 8(2-phenylethyl)-3,8-diaza-1-oxa-2-oxospiro[4,5]decane, reference compound], the “activity of reference product tested under the same conditions (Table 1)” value in assay [1] (10^-4 M) is “inactive”.
With `O=C1NCC2(CCN(C(=O)Cc3ccc(OCc4ccc5ccccc5n4)cc3)CC2)O1` [Example 29, 8-{[4-(quinol-2-ylmethoxy)phenyl]acetyl}-3,8-diaza-1-oxa-2-oxospiro[4,5]decane], the “LTB4 % Inhibition” value in assay [1] (10^-6 M) worked out at 18%; in assay [1] (10^-7 M), 30%. In assay [1], this compound had an IC50 of more than 1000 nM.
In turn, `O=C1NCC2(CCN(CC(c3ccccc3)c3ccc(OCc4ccc(-c5ccccc5)cn4)cc3)CC2)O1` (racemic) [Example 9, (R,S)-8-{2-phenyl-2-[4-(5-phenylpyrid-2-ylmethoxy)phenyl]ethyl}-3,8-diaza-1-oxa-2-oxospiro[4,5]decane] returned an IC50 in assay [1] of more than 100 nM.
Regarding `O=C1NC2(CCN(CC(c3ccccc3)c3ccc(OCc4ccc5ccccc5n4)cc3)CC2)CO1` (racemic) [Example 11, (R,S)-8-{2-phenyl-2-[4-(quinol-2-ylmethoxy)phenyl]ethyl}-1,8-diaza-3-oxa-2-oxospiro[4,5]decane], the results for the “LTB4 % Inhibition” value in assay [1] (10^-5 M) and in assay [1] (10^-7 M) were 76% and 38%, respectively. In assay [1], the IC50 was more than 100 nM.
In turn, `O=C1NCC2(CCN(CC(c3ccc(OCc4ccc5ccccc5n4)cc3)C3CCCC3)CC2)O1` (racemic) [Example 36, (R,S)-8-{2-cyclopentyl-2-[4-(quinol-2-ylmethoxy)phenyl]ethyl}-3,8-diaza-1-oxa-2-oxospiro[4,5]decane hydrochloride] displayed an IC50 in assay [1] of more than 100 nM.
On to `O=C1NCC2(CCN(C(=O)c3ccc(OCc4ccc5ccccc5n4)cc3)CC2)O1` [Example 30, 8-[4-(quinol-2-ylmethoxy)benzoyl]-3,8-diaza-1-oxa-2-oxospiro[4,5]decane], for which the “LTB4 % Inhibition” value in assay [1] (10^-6 M) came out at 14%. Also, the IC50 in assay [1] is more than 1000 nM.
For the compound `Cn1c(=O)ccc2cc(COc3ccc(C(c4ccccc4)N4CCC5(CC4)CNC(=O)O5)cc3)ccc21` (racemic) [Example 25, (R,S)-8-{[4-(1-methyl-2-oxo-1H-quinol-6-ylmethoxy)phenyl]phenylmethyl}-3,8-diaza-1-oxa-2-oxospiro[4,5]decane], the “LTB4 % Inhibition” value came out at 7% in assay [1] (10^-6 M) and 8% in assay [1] (10^-7 M).
As for `O=C1NCC2(CCN(C(=O)C(c3ccc(OCc4ccc5ccccc5n4)cc3)C3CCCC3)CC2)O1` (racemic) [Example 43, (R,S)-8-{cyclopentyl-[4-(quinol-2-ylmethoxy)phenyl]acetyl}-3,8-diaza-1-oxa-2-oxospiro[4,5]decane hydrochloride], the “LTB4 % Inhibition” value in assay [1] (10^-7 M) was found to be 8%. Further, the IC50 in assay [1] was more than 100 nM.
The compound `Cn1c(=O)ccc2cc(COc3ccc(CCN4CCC5(CC4)CNC(=O)O5)cc3)ccc21` [Example 3, 8-{2-[4-[(1-methyl-2-oxo-1H-quinol-6-yl)methoxy]phenyl]ethyl}-3,8-diaza-1-oxa-2-oxospiro[4,5]decane] displayed an IC50 in assay [1] of more than 100000 nM.
As to `O=C1NCC2(CCN(CC(Cc3ccccc3)c3ccc(OCc4ccccc4)cc3)CC2)O1` (racemic) [Example 31, (R,S)-8-[2-(4-benzyloxyphenyl)-3-phenylpropyl]-3,8-diaza-1-oxa-2-oxospiro[4,5]decane hydrochloride], the “LTB4 % Inhibition” value in assay [1] (10^-6 M) is reported as 16%. The IC50 in assay [1] is more than 1000 nM.
Regarding `O=C1NCC2(CCN(CC(O)c3ccc(OCc4ccc5ccccc5n4)cc3)CC2)O1` (racemic) [Example 5, (R,S)-8-{2-hydroxy-2-[4-(quinol-2-ylmethoxy)phenyl]ethyl}-3,8-diaza-1-oxa-2-oxospiro[4,5]decane], the “LTB4 % Inhibition” value in assay [1] (10^-6 M) amounted to 95%; in assay [1] (10^-7 M) it was 15%. For the same compound, in assay [2], the half-maximal inhibitory concentration (IC50) is more than 100000 nM.
Regarding `O=C1NCC2(CCN(CC(c3ccccc3)c3ccc(OCc4ccc5ccccc5c4)cc3)CC2)O1` (racemic) [Example 7, (R,S)-8-{2-[4-(naphth-2-ylmethoxy)phenyl]-2-phenylethyl}-3,8-diaza-1-oxa-2-oxospiro[4,5]decane], the “LTB4 % Inhibition” value in assay [1] (10^-7 M) turned out to be 36%. In addition, the IC50 in assay [1] is more than 1000 nM.
Take `O=C1NCC2(CCN(C(c3ccccc3)c3ccc(OCc4ccc5ccccc5c4)cc3)CC2)O1` (racemic) [Example 23, (R,S)-8-{[4-(naphth-2-ylmethoxy)phenyl]phenylmethyl}-3,8-diaza-1-2-oxospiro[4,5]decane]: in assay [1] (10^-7 M), the “LTB4 % Inhibition” value is 9%. Further, in assay [1], the IC50 is more than 1000 nM.
As for `O=C1NCC2(CCN(CC(Cc3ccc(Cl)cc3)c3ccc(OCc4ccc(-c5ccccc5)cn4)cc3)CC2)O1` (racemic) [Example 35, (R,S)-8-{3-(4-chlorophenyl)-2-[4-(5-phenylpyrid-2-ylmethoxy)phenyl]propyl}-3,8-diaza-1-oxa-2-oxospiro[4,5]decane], the IC50 in assay [1] was more than 1000 nM.
In the case of `O=C1NCC2(CCN(CCc3ccc(OCc4ccc5ccccc5n4)cc3)CC2)O1` [Example 2, 8-{2-[4-(quinol-2-ylmethoxy)phenyl]ethyl}-3,8-diaza-1-2-oxospiro[4,5]decane], the “LTB4 % Inhibition” value in assay [1] (10^-6 M) is on record as 90%. The compound also registered an inhibition at 100 µM in assay [2] (rat peritoneal PMN) of 23%. In assay [2], this compound yielded a half-inhibitory concentration (IC50) of more than 100000 nM.
With `O=C1OC2(CCN(CC(c3ccccc3)c3ccc(OCc4ccc5ccccc5n4)cc3)CC2)CN1CCc1ccccc1` (racemic) [Example 12, (R,S)-3-(2-phenylethyl)-8-{2-phenyl-2-[4-(quinol-2-ylmethoxy)phenyl]ethyl}-3,8-diaza-1-oxa-2-oxospiro[4,5]decane], the entries for the “LTB4 % Inhibition” value in assay [1] (10^-5 M) and in assay [1] (10^-7 M) were 98% and 53%, respectively. For the same compound, the IC50 in assay [1] is 100 nM; in assay [2], less than 10000 nM. In assay [2] (rat peritoneal PMN), this compound had an inhibition at 100 µM of 86%. The inhibition at 10 µM in assay [2] (10^-5 M, rat peritoneal PMN) was found to be 92%.
`c1ccc(C(CN2CCC3(CC2)OCCO3)c2ccc(OCc3ccc4ccccc4n3)cc2)cc1` (racemic) [Example 10, (R,S)-8-{2-phenyl-2-[4-(quinol-2-ylmethoxy)phenyl]ethyl}-8-aza-1,4-dioxaspiro[4,5]decane dihydrochloride]: the results for the “LTB4 % Inhibition” value in assay [1] (10^-5 M) and in assay [1] (10^-7 M) were 92% and 28%, respectively. Also, in assay [1], the IC50 is more than 100 nM.
Turning to `CC1NC(=O)OC12CCN(CC(c1ccccc1)c1ccc(OCc3ccc4ccccc4n3)cc1)CC2` (racemic) [Example 13, (R,S), (R,S)-4-methyl-8-{2-phenyl-2-[4-quinol-2-ylmethoxy)phenyl]ethyl}-3,8-diaza-1-oxa-2-oxospiro[4,5]decane], the “LTB4 % Inhibition” value in assay [1] (10^-5 M) amounted to 91%; in assay [1] (10^-7 M), 21%. The same compound showed an IC50 in assay [1] of more than 100 nM.

For the origin of these results see patent US5698567A, “Heterocyclic spiro compounds” (Adir Et Compagnie, priority 1995, dated 1997).
